Molecules are shown by their SMILES. In brackets after ≈: the same amount, converted by molar mass.

As a reminder, the MIC is the lowest concentration that inhibits growth of the organism.

In data set [1] the test system is Methicillin Resistant Staphylococcus Aureus (MRSA). In words: Anti-pathogenic microorganism test. In kind it is cell-based.
The test system of the next data set is Acinetobacter. Kind of data set: Anti-pathogenic microorganism test. In kind it is cell-based.
The next data set concerns Escherichia coli. Kind of data set: Anti-pathogenic microorganism test. Format: cell-based.
Another data set has as its system Helicobacter pylori. In words: Anti-pathogenic microorganism test. Format: cell-based.
The next data set relates to Candida albicans. In words: Anti-pathogenic microorganism test. In kind it is cell-based.
The conditions of data set [2]: room temperature; background description; cited from earlier work.
The conditions of data set [3]: background description; cited from earlier work.

Regarding `C=CCS[S+]([O-])CC=C` (stereo not shown) [Allicin, thio-2-propene-1-sulfinic acid S-allyl ester], the bactericidal activity entry (in data set [1]; in the data set with Acinetobacter; in the data set with Escherichia coli; in the data set with Helicobacter pylori; in the data set with Candida albicans) was “obviously bactericidal activity” in each case. Besides, the MIC (in data set [1] (Staphylococcus aureus); in the data set with Helicobacter pylori) was 10 to 30 µg/mL (≈ 61.6 to 185 µM) throughout. Further, the sensitivity to allicin entry in the data set with Candida albicans is reported as “sensitive”. The solubility in water result in data set [2] is recorded as “slightly soluble in water”. Moreover, the “decomposition when exposed to air” value in data set [3] was “decomposes and deteriorates within a few hours”.

These data come from US9023623B2, “Method for preparing of allicin injection and low-temperature continuous stirring ultrafiltration device thereof” (Xinjiang Ailexin Pharmaceutical Co., Ltd., priority 2010, dated 2015).
